Data as given in patent US5545625A, “Preventing conversion of citrulline to argininosuccinate to limit pathological nitric oxide overproduction” (The Medical College of Wisconsin Research Foundation, Inc., priority 1994, dated 1996).
Values joined by “and” are separate entries in the source; they are usually repeats but may differ in a detail not shown here. Equal entries are not always repeated.

Legend:
[1] = target: T1, immunostimulant induced argininosuccinate synthetase (Rattus norvegicus, UniProt P09034); experiment: Argininosuccinate synthetase assay in crude homogenate of immunostimulant treated rat aortic smooth muscle cells (Example VI); assay type: biochemical; conditions: test compound 1 mM; for counts per minute in the argininosuccinate synthetase assay: duplicate runs, control 534.00 and 443.00, background 217, 237 and 252 not subtracted
T1 sequence (P09034 1-412): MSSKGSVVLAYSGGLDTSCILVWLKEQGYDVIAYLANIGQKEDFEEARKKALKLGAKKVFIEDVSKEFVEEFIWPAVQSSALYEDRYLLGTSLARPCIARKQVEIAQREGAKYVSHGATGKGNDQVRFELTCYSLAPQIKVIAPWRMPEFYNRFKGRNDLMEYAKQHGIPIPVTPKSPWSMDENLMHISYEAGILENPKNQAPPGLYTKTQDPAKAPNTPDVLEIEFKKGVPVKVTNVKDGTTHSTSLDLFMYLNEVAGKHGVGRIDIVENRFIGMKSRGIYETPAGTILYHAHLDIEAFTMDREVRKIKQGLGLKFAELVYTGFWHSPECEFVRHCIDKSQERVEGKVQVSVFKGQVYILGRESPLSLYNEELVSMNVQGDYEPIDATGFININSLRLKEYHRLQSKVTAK
Procedure: Argininosuccinate synthetase activity was assayed based on the conversion of [^14 C]aspartate to [^14 C]argininosuccinate, as described in O'Brien, W. E., Biochemistry 18, 5353-5356, 1979, with the exception that aspartate was present at a concentration of 30 μm (0.021 μCi/nmol). Reaction mixtures also contained L-citrulline (5 mM), Tris (10 mM, pH 7.5), ATP 0.1mM), phosphoenolpyruvate (1.5 mM), pyruvate kinase (4.5 units), myokinase (4 units), and pyrophosphatase (0.2 unit) in a total volume of 0.3 ml. Reactions were allowed to proceed for 90 minutes at 37° C before termination and quantification of the [^14 C]argininosuccinate formed, using ion exchange chromatography on Dowex 1-X8 (200-400 mesh, Bio-Rad).
Immunostimulant treated rat aortic smooth muscle cells prepared as in Example I were homogenized in 10 volumes (10 ml/gm rat aortic smooth muscle cells) of 100 mM tris buffer containing 1 mM phenylmethylsulfonyl fluoride ([…]) and 1 mM dithiothreitol (to maintain enzyme in reduced form).
For the control, the crude homogenate was assayed for argininosuccinate synthetase by the procedure as described in Example I except that L-citrulline was present at a concentration of 150 μM instead of 5 mM. In duplicate runs, counts per minute were 534.00 (8.65% error) and 443.00 (9.50% error) counts per minute.
The background count to be subtracted from the above count results was obtained by omitting citrulline from the argininosuccinate synthetase assay and in three runs was determined to be 217, 237 and 252 counts per minute.

[2] = tested on: rat aortic smooth muscle cells; experiment: Nitrite production (indicator of cellular NO synthesis) by LPS/interferon-gamma induced rat aortic smooth muscle cells (Examples IV, V); assay type: cell-based; conditions: L-citrulline varied at fixed L-arginine (0 or low), added with immunostimulant; 24 hours; FIG. 5
Procedure: Rat aortic smooth muscle cells were grown as described in Example I and were continuously treated with 30 μg/ml of bacterial lipopolysaccharide in combination with 50 ng/ml of interferongamma. Concentrations of mithramycin as indicated in FIG. 4 were added either simultaneously with immunostimulant (filled in circles in FIG. 4) or 4 hours later (open circles in FIG. 4).
Nitrite was used as an indicator of cellular NO synthesis and assay was carried out as described in Gross, S. S., et al, J. Biol. Chem. 267, 25722-25729 (1992). In the assay, cells were treated with serum- and arginine-free RPMI 1640 medium containing the desired test agents for 24 hours. The accumulation of nitrite in the cell culture medium was quantified colorimetrically after adding 100 μl of Griess reagent (1% sulfanilamide and 0.1% naphthalene diamine in 5% o-phosphoric acid) to an equal volume of sample.
Rat aortic smooth muscle cells were grown as described in Example I and were treated with 30 μg/ml of bacterial lipopolysaccharide in combination with 50 ng/ml of interferon-gamma. Concentrations of L-citrulline and L-arginine as indicated in FIG. 5 were added simultaneously with immunostimulant. Nitrite was used as an indicator of cellular NO synthesis and assay therefor was carried out as described in Example IV.

[3] = tested on: human treated with interleukin-2; experiment: Hypotension during interleukin-2 treatment for renal cell cancer (Examples VIII, XIV); assay type: in vivo; conditions: interleukin-2 1×10^6, 5 days; L-thiocitrulline 10 mg/kg/day from start of infusion
Procedure: A human is treated for renal cell cancer with interleukin-2 (1×10^6 units) for 5 days. By the fifth day, the patient's blood pressure falls to 80/55 mm Hg and the patient encounters nausea and extreme discomfort. Three weeks later, the patient returns for a second course of interleukin-2 treatment but is pretreated (before commencing interleukin-2 infusion) with mithramycin (25 μg/kg) and is treated at 24 hour intervals thereafter with 25 μg/kg of mithramycin. The mithramycin is administered intravenously in 50 ml saline over a 3 to 6 hour interval.
A human is treated for renal cell cancer with interleukin-2 (1×10^6) for 5 days. Simultaneously with commencing interleukin-2 infusion, L-thiocitrulline (10 mg/kg/day) is administered.

[4] = tested on: patient with Gram negative septicemia; experiment: Blood pressure in septicemia patient given dopamine plus test agent (Examples IX, XV); assay type: in vivo, human; conditions: dopamine 10 μg/kg/min plus L-thiocitrulline 20 mg/kg bolus then 10 mg/kg/hr
Procedure: A patient with Gram negative septicemia and blood pressure of 80/55 mm Hg is administered dopamine at 10 μg/kg/min to acutely increase blood pressure and concurrently is administered mithramycin (25 μg/kg) intravenously in 50 ml saline over 3-6 hours.
A patient with Gram negative septicemia and blood pressure of 80/55 mm Hg is administered dopamine at 10 μg/kg/min to acutely increase blood pressure and concurrently is intravenously administered an initial bolus dose of L-thiocitrulline of 20 mg/kg and thereafter L-thiocitrulline as a sustained infusion at a dose of 10 mg/kg/hr.

[5] = tested on: Sprague-Dawley rats; experiment: Air pouch inflammatory model with croton oil (Examples XII, XVIII); assay type: in vivo, rat; conditions: L-thiocitrulline 20 mg/kg intraperitoneally, repeated at 6-24 hour intervals; end of 5 days; versus rats without drug
[6] = tested on: patient with Gram negative septicemia; experiment: Blood pressure in septicemia patient given N^G -methyl-L-arginine plus test agent (Examples X, XVI); assay type: in vivo, human; conditions: N^G -methyl-L-arginine 20 mg/kg bolus then 10 mg/kg/hr, plus N^ω -methyl-L-citrulline 40 mg/kg intravenously over 3-6 hours
Procedure: A patient with Gram negative septicemia and blood pressure of 80/55 mm Hg is administered N^G -methyl-L-arginine in a bolus dose of 20 mg/kg intravenously in saline and thereafter is given a sustained infusion of N^G -methyl-L-arginine at a dosage of 10 mg/kg/hr. Mithramycin (25 μg/kg) is given intravenously in 50 ml saline over 3-6 hours starting at the time of the bolus dose of N^G -methyl-L-arginine. […] The patient is released after 2 days.
A patient with a Gram negative septicemia and blood pressure of 80/55 mm Hg is administered N^G -methyl-L-arginine in a bolus dose of 20 mg/kg intravenously in saline and thereafter is given a sustained infusion of N^G -methyl-L-arginine at a dose of 10 mg/kg/hr. N^ω -Methyl-L-citrulline (40 mg/kg) is given intravenously in 50 ml saline over 3-6 hours starting at the time of the bolus dose of N^G -methyl-L-arginine.

| Structure (SMILES) | inhibition of immunostimulant induced argininosuccinate synthetase ([1]; L-citrulline 150 μM) | counts per minute in the argininosuccinate synthetase assay ([1]; L-citrulline 150 μM) | inhibition of immunostimulant induced argininosuccinate synthetase ([1]; stated in present tense) | also measured |
| --- | --- | --- | --- | --- |
| N=C(N)NOCC[C@H](N)C(=O)O [L-canavanine] | are inhibitors of immunostimulant induced argininosuccinate synthetase | 355.00 (10.61% error) counts per minute and 393.00 (10.09% error) counts per minute |  |  |
| NC(=O)NCCC[C@H](N)C(=O)O [L-citrulline] |  |  |  | nitrite concentration in cell culture medium [2]: maximal nitrite is obtained |
| CCC[C@H](N)C(=O)O [L-norvaline] |  |  | inhibition of immunostimulant induced argininosuccinate synthetase is shown |  |
| NC(=S)NCCC[C@H](N)C(=O)O [L-thiocitrulline] | are inhibitors of immunostimulant induced argininosuccinate synthetase | 272.00 (12.13% error) counts per minute and 227.00 (13.27% error) counts per minute |  | development of hypotension [3]: Hypotension does not develop; blood pressure [4]: becomes normal within minutes and this state is sustained; inflammation [5]: less inflammation; nitrite in the fluid exudate of the lesion [5]: significantly less nitrite |
| CNC(=N)NCCC[C@H](N)C(=O)O [N^ω -methyl-L-arginine] |  | 591.00 (8.23% error) counts per minute and 520.00 (8.77% error) counts per minute |  |  |
| CNC(=O)NCCC[C@H](N)C(=O)O [N^ω -methyl-L-citrulline] |  |  | more potent than obtained with L-canavanine but less potent than obtained with L-thiocitrulline | blood pressure [6]: becomes mildly hypotensive or normal within minutes |
